Measurements published in ChEMBL document CHEMBL2440076, “New triarylpyrazoles as broad-spectrum anticancer agents: design, synthesis, and biological evaluation” (Eur J Med Chem, 2013).

Columns and labels:
Type in all cases: functional
SNB-75 [1] = assay: Growth inhibition of human SNB75 cells assessed as cell growth at 5X10'-5 M after 48 hrs by sulforhodamine B assay; settings: SNB-75, 48 h, read-out: Activity
COLO 205 [2] = assay: Growth inhibition of human COLO205 cells assessed as cell growth at 5X10'-5 M after 48 hrs by sulforhodamine B assay; settings: COLO 205, 48 h, read-out: Activity
NCI-H460 = assay: Growth inhibition of human NCI-H460 cells assessed as cell growth at 5X10'-5 M after 48 hrs by sulforhodamine B assay; settings: NCI-H460, 48 h, read-out: Activity
NCI-H226 = assay: Growth inhibition of human NCI-H226 cells assessed as cell growth at 5X10'-5 M after 48 hrs by sulforhodamine B assay; settings: NCI-H226, 48 h, read-out: Activity
SK-MEL-5 = assay: Growth inhibition of human SK-MEL-5 cells assessed as cell growth at 5X10'-6 M after 48 hrs by sulforhodamine B assay; settings: SK-MEL-5, 48 h, read-out: Activity
MDA-MB-435 = assay: Growth inhibition of human MDA-MB-435 cells assessed as cell growth at 5X10'-6 M after 48 hrs by sulforhodamine B assay; settings: MDA-MB-435, 48 h, read-out: Activity
U-251 = assay: Growth inhibition of human U251 cells assessed as cell growth at 5X10'-6 M after 48 hrs by sulforhodamine B assay; settings: U-251, 48 h, read-out: Activity
COLO 205 [3] = assay: Growth inhibition of human COLO205 cells assessed as cell growth at 5X10'-9 M after 48 hrs by sulforhodamine B assay; settings: COLO 205, 48 h, read-out: Activity
NCI-H23 = assay: Growth inhibition of human NCI-H23 cells assessed as cell growth at 5X10'-9 M after 48 hrs by sulforhodamine B assay; settings: NCI-H23, 48 h, read-out: Activity
SF-539 [4] = assay: Growth inhibition of human SF539 cells assessed as cell growth at 5X10'-6 M after 48 hrs by sulforhodamine B assay; settings: SF-539, 48 h, read-out: Activity
T47D [5] = assay: Growth inhibition of human T47D cells assessed as cell growth at 5X10'-7 M after 48 hrs by sulforhodamine B assay; settings: read-out: Activity
UO-31 [6] = assay: Growth inhibition of human UO31 cells assessed as cell growth at 5X10'-7 M after 48 hrs by sulforhodamine B assay; settings: UO-31, 48 h, read-out: Activity
TK-10 = assay: Growth inhibition of human TK10 cells assessed as cell growth at 5X10'-7 M after 48 hrs by sulforhodamine B assay; settings: TK-10, 48 h, read-out: Activity
SK-MEL-28 [7] = assay: Growth inhibition of human SK-MEL-28 cells assessed as cell growth at 5X10'-7 M after 48 hrs by sulforhodamine B assay; settings: SK-MEL-28, 48 h, read-out: Activity
M14 = assay: Growth inhibition of human M14 cells assessed as cell growth at 5X10'-7 M after 48 hrs by sulforhodamine B assay; settings: M14, 48 h, read-out: Activity
SF-539 [8] = assay: Growth inhibition of human SF539 cells assessed as cell growth at 5X10'-7 M after 48 hrs by sulforhodamine B assay; settings: SF-539, 48 h, read-out: Activity
HOP-92 = assay: Growth inhibition of human HOP92 cells assessed as cell growth at 5X10'-7 M after 48 hrs by sulforhodamine B assay; settings: HOP-92, 48 h, read-out: Activity
HOP-62 = assay: Growth inhibition of human HOP62 cells assessed as cell growth at 5X10'-7 M after 48 hrs by sulforhodamine B assay; settings: HOP-62, 48 h, read-out: Activity
MDA-MB-468 = assay: Growth inhibition of human MDA-MB-468 cells assessed as cell growth at 5X10'-8 M after 48 hrs by sulforhodamine B assay; settings: MDA-MB-468, 48 h, read-out: Activity
T47D [9] = assay: Growth inhibition of human T47D cells assessed as cell growth at 5X10'-8 M after 48 hrs by sulforhodamine B assay; settings: read-out: Activity
ACHN = assay: Growth inhibition of human ACHN cells assessed as cell growth at 5X10'-8 M after 48 hrs by sulforhodamine B assay; settings: read-out: Activity
786-0 = assay: Growth inhibition of human 786-0 cells assessed as cell growth at 5X10'-8 M after 48 hrs by sulforhodamine B assay; settings: 786-0, 48 h, read-out: Activity
UACC-62 [10] = assay: Growth inhibition of human UACC62 cells assessed as cell growth at 5X10'-8 M after 48 hrs by sulforhodamine B assay; settings: UACC-62, 48 h, read-out: Activity
SF-539 [11] = assay: Growth inhibition of human SF539 cells assessed as cell growth at 5X10'-8 M after 48 hrs by sulforhodamine B assay; settings: SF-539, 48 h, read-out: Activity
MDA-MB-231 = assay: Growth inhibition of human MDA-MB-231 cells assessed as cell growth at 5X10'-5 M after 48 hrs by sulforhodamine B assay; settings: MDA-MB-231, 48 h, read-out: Activity
PC-3 = assay: Growth inhibition of human PC3 cells assessed as cell growth at 5X10'-5 M after 48 hrs by sulforhodamine B assay; settings: PC-3, 48 h, read-out: Activity
OVCAR-8 = assay: Growth inhibition of human OVCAR8 cells assessed as cell growth at 5X10'-5 M after 48 hrs by sulforhodamine B assay; settings: OVCAR-8, 48 h, read-out: Activity
OVCAR-5 = assay: Growth inhibition of human OVCAR5 cells assessed as cell growth at 5X10'-5 M after 48 hrs by sulforhodamine B assay; settings: OVCAR-5, 48 h, read-out: Activity
UACC-257 = assay: Growth inhibition of human UACC257 cells assessed as cell growth at 5X10'-5 M after 48 hrs by sulforhodamine B assay; settings: UACC-257, 48 h, read-out: Activity
SK-MEL-28 [12] = assay: Growth inhibition of human SK-MEL-28 cells assessed as cell growth at 5X10'-5 M after 48 hrs by sulforhodamine B assay; settings: SK-MEL-28, 48 h, read-out: Activity
HT-29 = assay: Growth inhibition of human HT-29 cells assessed as cell growth at 5X10'-8 M after 48 hrs by sulforhodamine B assay; settings: HT-29, 48 h, read-out: Activity
UO-31 [13] = assay: Growth inhibition of human UO31 cells assessed as cell growth at 5X10'-9 M after 48 hrs by sulforhodamine B assay; settings: UO-31, 48 h, read-out: Activity
[14] = Growth inhibition of human NCI-ADR-RES cells assessed as cell growth at 5X10'-9 M after 48 hrs by sulforhodamine B assay; settings: read-out: Activity
UACC-62 [15] = assay: Growth inhibition of human UACC62 cells assessed as cell growth at 5X10'-9 M after 48 hrs by sulforhodamine B assay; settings: UACC-62, 48 h, read-out: Activity
SK-MEL-2 = assay: Growth inhibition of human SK-MEL-2 cells assessed as cell growth at 5X10'-9 M after 48 hrs by sulforhodamine B assay; settings: SK-MEL-2, 48 h, read-out: Activity
SNB-75 [16] = assay: Growth inhibition of human SNB75 cells assessed as cell growth at 5X10'-9 M after 48 hrs by sulforhodamine B assay; settings: SNB-75, 48 h, read-out: Activity

Row | SMILES | growth at 50 µM (SNB-75 [1]) | growth at 50 µM (COLO 205 [2]) | growth at 50 µM (NCI-H460) | growth at 50 µM (NCI-H226) | growth at 5 µM (SK-MEL-5) | growth at 5 µM (MDA-MB-435) | growth at 5 µM (U-251) | growth at 0.005 µM (COLO 205 [3]) | growth at 0.005 µM (NCI-H23) | growth at 5 µM (SF-539 [4]) | growth at 0.5 µM (T47D [5]) | growth at 0.5 µM (UO-31 [6]) | growth at 0.5 µM (TK-10) | growth at 0.5 µM (SK-MEL-28 [7]) | growth at 0.5 µM (M14) | growth at 0.5 µM (SF-539 [8]) | growth at 0.5 µM (HOP-92) | growth at 0.5 µM (HOP-62) | growth at 0.05 µM (MDA-MB-468) | growth at 0.05 µM (T47D [9]) | further results
1 | COc1cc(-c2nn(-c3cccc(NC(=O)Nc4cc(C(F)(F)F)cc(C(F)(F)F)c4)c3)cc2-c2ccncc2)ccc1Cl | -62% | -95% | -59% | -4% | -96% | -57% | -77% | 107% | 99% | -74% | 89% | 62% | 78% | 89% | 71% | 85% | 30% | 93% | 85% | 104% | growth at 0.05 µM (ACHN): 100%; growth at 0.05 µM (786-0): 102%; growth at 0.05 µM (UACC-62 [10]): 93%; growth at 0.05 µM (SF-539 [11]): 90%; growth at 50 µM (MDA-MB-231): -85%; growth at 50 µM (PC-3): -31%; growth at 50 µM (OVCAR-8): -11%; growth at 50 µM (OVCAR-5): -72%; growth at 50 µM (UACC-257): -54%; growth at 50 µM (SK-MEL-28 [12]): -87%; growth at 0.05 µM (HT-29): 108%; growth at 0.005 µM (UO-31 [13]): 90%; growth at 0.005 µM [14]: 105%; growth at 0.005 µM (UACC-62 [15]): 97%; growth at 0.005 µM (SK-MEL-2): 111%; growth at 0.005 µM (SNB-75 [16]): 94%
2 | O=C(Nc1cccc(-n2cc(-c3ccncc3)c(-c3ccc(Cl)c(O)c3)n2)c1)Nc1cc(C(F)(F)F)cc(C(F)(F)F)c1 | -75% | -91% | -78% | -58% | -94% | -31% | -83% | 105% | 98% | -91% | 88% | 62% | 75% | 84% | 59% | 82% | 45% | 96% | 85% | 98% | growth at 0.05 µM (ACHN): 96%; growth at 0.05 µM (786-0): 99%; growth at 0.05 µM (UACC-62 [10]): 92%; growth at 0.05 µM (SF-539 [11]): 94%; growth at 50 µM (MDA-MB-231): -72%; growth at 50 µM (PC-3): -49%; growth at 50 µM (OVCAR-8): -53%; growth at 50 µM (OVCAR-5): -89%; growth at 50 µM (UACC-257): -82%; growth at 50 µM (SK-MEL-28 [12]): -95%; growth at 0.05 µM (HT-29): 107%; growth at 0.005 µM (UO-31 [13]): 97%; growth at 0.005 µM [14]: 102%; growth at 0.005 µM (UACC-62 [15]): 95%; growth at 0.005 µM (SK-MEL-2): 112%; growth at 0.005 µM (SNB-75 [16]): 88%
3 | COc1cc(-c2nn(-c3cccc(NC(=O)Nc4ccc(Cl)c(Cl)c4)c3)cc2-c2ccncc2)ccc1Cl | -15% | -94% | 2% | 4% | -86% | -39% | -32% | 109% | 97% | -21% | 84% | 65% | 83% | 91% | 78% | 78% | 35% | 93% | 84% | 101% | growth at 0.05 µM (ACHN): 98%; growth at 0.05 µM (786-0): 102%; growth at 0.05 µM (UACC-62 [10]): 94%; growth at 0.05 µM (SF-539 [11]): 85%; growth at 50 µM (MDA-MB-231): -54%; growth at 50 µM (PC-3): -22%; growth at 50 µM (OVCAR-8): -16%; growth at 50 µM (OVCAR-5): 15%; growth at 50 µM (UACC-257): -30%; growth at 50 µM (SK-MEL-28 [12]): -6%; growth at 0.05 µM (HT-29): 102%; growth at 0.005 µM (UO-31 [13]): 88%; growth at 0.005 µM [14]: 104%; growth at 0.005 µM (UACC-62 [15]): 98%; growth at 0.005 µM (SK-MEL-2): 109%; growth at 0.005 µM (SNB-75 [16]): 86%
